Measurements published in the NIST ThermoML archive (doi:10.1016/j.jct.2018.02.013).

What was measured:
[1] = molar heat capacity at constant pressure; wn = mass fraction of the nth substance listed; conditions: 101 kPa, Liquid, Small sample (50 mg) DSC
[2] = wn = mass fraction of the nth substance listed; conditions: 101 kPa, Liquid; for mass density: Vibrating tube method; for viscosity: Cone and plate viscometry; for electrical conductivity: Direct current cell with electrodes; for thermal conductivity: transient hot wire

CCCCCCCC(=O)[O-].CCCCCCCCCCCCCC[P+](CCCCCC)(CCCCCC)CCCCCC [trihexyl(tetradecyl)phosphonium octanoate] + O
w2 = 0.1478
Conditions | electrical conductivity [S/m] | mass density [kg/m3] | molar heat capacity at constant pressure [J/K/mol] | thermal conductivity [W/m/K] | viscosity [mPa·s]
[1], 298.15 K | – | – | 319.61 | – | –
[1], 303.15 K | – | – | 322.43 | – | –
[1], 308.15 K | – | – | 325.15 | – | –
[1], 313.15 K | – | – | 326.51 | – | –
[1], 318.15 K | – | – | 329.23 | – | –
[1], 323.15 K | – | – | 332.16 | – | –
[1], 328.15 K | – | – | 335.5 | – | –
[1], 333.15 K | – | – | 338.32 | – | –
[1], 338.15 K | – | – | 340.52 | – | –
[1], 343.15 K | – | – | 342.51 | – | –
[1], 348.15 K | – | – | 345.96 | – | –
[1], 353.15 K | – | – | 350.45 | – | –
[1], 358.15 K | – | – | 353.8 | – | –
[1], 363.15 K | – | – | 358.19 | – | –
[2], 298.15 K | – | 901.5 | – | – | –
[2], 298.2 K | – | – | – | – | 82.71
[2], 299 K | 0.0415 | – | – | – | –
[2], 299.13 K | – | – | – | 0.1872 | –
[2], 303.15 K | – | 898.1 | – | – | –
[2], 303.2 K | – | – | – | – | 70.08
[2], 304.4 K | 0.051 | – | – | – | –
[2], 307.9 K | – | – | – | 0.1852 | –
[2], 308.2 K | – | – | – | – | 58.36
[2], 308.8 K | 0.0603 | – | – | – | –
[2], 313.15 K | – | 891.3 | – | – | –
[2], 313.2 K | – | – | – | – | 48.63
[2], 313.6 K | 0.0724 | – | – | – | –
[2], 318.01 K | – | – | – | 0.1831 | –
[2], 318.2 K | 0.0882 | – | – | – | 41.34
[2], 323.15 K | – | 884.7 | – | – | –
[2], 323.2 K | – | – | – | – | 35.7
[2], 323.8 K | 0.101 | – | – | – | –
[2], 327.85 K | – | – | – | 0.1821 | –
[2], 328.2 K | – | – | – | – | 30.82
[2], 328.6 K | 0.119 | – | – | – | –
[2], 333.15 K | – | 877.7 | – | – | –
[2], 333.2 K | – | – | – | – | 26.32
[2], 333.4 K | 0.139 | – | – | – | –
[2], 337.66 K | – | – | – | 0.1801 | –
[2], 338.1 K | 0.164 | – | – | – | –
[2], 338.2 K | – | – | – | – | 22.53
[2], 343.15 K | – | 870.8 | – | – | –
[2], 343.2 K | – | – | – | – | 19.93
[2], 343.5 K | 0.182 | – | – | – | –
[2], 347.48 K | – | – | – | 0.1791 | –
[2], 348.2 K | – | – | – | – | 17.29
[2], 349.7 K | 0.215 | – | – | – | –
[2], 353.15 K | – | 863.8 | – | – | –
[2], 353.2 K | – | – | – | – | 15.03
[2], 358 K | – | – | – | 0.1771 | –
[2], 358.2 K | – | – | – | – | 13.44
[2], 363.15 K | – | 857.1 | – | – | –
[2], 363.2 K | – | – | – | – | 11.86
[2], 368.2 K | – | – | – | – | 10.87

CCCCCCCCCC(=O)[O-].CCCCCCCCCCCCCC[P+](CCCCCC)(CCCCCC)CCCCCC [trihexyltetradecylphosphonium decanoate] + O
w2 = 0.1415
Conditions | electrical conductivity [S/m] | mass density [kg/m3] | molar heat capacity at constant pressure [J/K/mol] | thermal conductivity [W/m/K] | viscosity [mPa·s]
[1], 298.15 K | – | – | 313.81 | – | –
[1], 303.15 K | – | – | 319.48 | – | –
[1], 308.15 K | – | – | 323.73 | – | –
[1], 313.15 K | – | – | 326.79 | – | –
[1], 318.15 K | – | – | 328.54 | – | –
[1], 323.15 K | – | – | 332.14 | – | –
[1], 328.15 K | – | – | 335.3 | – | –
[1], 333.15 K | – | – | 338.57 | – | –
[1], 338.15 K | – | – | 341.41 | – | –
[1], 343.15 K | – | – | 344.47 | – | –
[1], 348.15 K | – | – | 348.72 | – | –
[1], 353.15 K | – | – | 351.99 | – | –
[1], 358.15 K | – | – | 355.6 | – | –
[1], 363.15 K | – | – | 360.72 | – | –
[2], 298.15 K | – | 899.1 | – | – | –
[2], 298.2 K | – | – | – | – | 91.87
[2], 298.55 K | – | – | – | 0.1861 | –
[2], 299.2 K | 0.03 | – | – | – | –
[2], 303.15 K | – | 895.8 | – | – | –
[2], 303.2 K | – | – | – | – | 76.66
[2], 303.6 K | 0.0369 | – | – | – | –
[2], 307.51 K | – | – | – | 0.1849 | –
[2], 308.2 K | – | – | – | – | 64.23
[2], 308.8 K | 0.0436 | – | – | – | –
[2], 313.15 K | – | 889 | – | – | –
[2], 313.2 K | 0.0524 | – | – | – | 53.34
[2], 317.84 K | – | – | – | 0.1829 | –
[2], 318.2 K | – | – | – | – | 45
[2], 318.8 K | 0.0639 | – | – | – | –
[2], 323.15 K | – | 882.3 | – | – | –
[2], 323.2 K | – | – | – | – | 37.98
[2], 323.6 K | 0.0733 | – | – | – | –
[2], 328.2 K | – | – | – | – | 32.86
[2], 328.68 K | – | – | – | 0.1809 | –
[2], 328.8 K | 0.0865 | – | – | – | –
[2], 333.15 K | – | 875.4 | – | – | –
[2], 333.2 K | 0.1 | – | – | – | 28.28
[2], 337.66 K | – | – | – | 0.1799 | –
[2], 338.2 K | – | – | – | – | 24.62
[2], 338.8 K | 0.118 | – | – | – | –
[2], 343.15 K | – | 868.2 | – | – | –
[2], 343.2 K | – | – | – | – | 21.4
[2], 343.8 K | 0.132 | – | – | – | –
[2], 347.13 K | – | – | – | 0.1785 | –
[2], 348.2 K | – | – | – | – | 18.91
[2], 348.9 K | 0.156 | – | – | – | –
[2], 353.15 K | – | 860.8 | – | – | –
[2], 353.2 K | – | – | – | – | 17.1
[2], 358.2 K | – | – | – | 0.1762 | 15.4
[2], 363.15 K | – | 853.7 | – | – | –
[2], 363.2 K | – | – | – | – | 13.95
[2], 368.2 K | – | – | – | – | 12.08
